These results are taken from PMC11875816 (Heliyon, 2025).

Data set [1] concerns Aβ1-42-induced AD mice. Description: Morris water maze test. The data set is classed as in vivo, ICR male mice. To be noted: Aβ1-42 AD mice; for average escape latency time over the three days: AD group 42.7 ± 9.13, normal 27.66 ± 3.97. The source says: (§1) Seven-week-old ICR male mice (25−30 g body weight range) were purchased from the Samtaco BIO, KOREA (Osan-si, Gyeonggi-do, Korea). […] All efforts were made to minimize suffering and the number of animals used. One day before dissection, only water was provided and food was fasted. Acclimatized experimental animals were grouped into seven containing 7 mice each (Table 1 and Fig. 1).
(§2) Prepare the test substance at a concentration appropriate for each test using purified water. […] Amyloid beta (Aβ1-42) was prepared and administered following standard protocols. BSEP was orally administered at doses of 200 mg/kg/day and 400 mg/kg/day for one week before and after Aβ1-42 injection, each at a volume of 200 μL. Following intravenous administration, broccoli extract was orally administered at the same doses for two weeks.
(§3) Aβ1-42 ([…]) was surgically injected into the brain ventricle of anesthetized mice (intravenous [IV] injection of xylazine [5 mg/kg] and ketamine [50 mg/kg]). The skull was precisely punctured at specific coordinates using a small drill, and amyloid beta was injected deeply into the brain using a microinjector. The control group underwent the same procedure with saline injections instead. Following surgery, the incision sites were disinfected and sutured, and the animals were allowed to recover in a cage.
(§4) The water maze test evaluates the spatial memory of experimental animals by filling a circular pool (120 cm diameter × 60 cm hight) with water to a depth of 30 cm (maintained at 23 ± 2 °C). An escape zone (10 cm diameter) is designated in one section of the four quadrants, with the platform positioned 1 cm below the water surface and made invisible with skim milk powder. If the animal fails to locate the platform within 60 s, it is gently guided there and allowed to familiarize itself for 20 s. The test is conducted at 30-min intervals, four times daily for three consecutive days. Observations are recorded using a ceiling-mounted camera and analyzed using SMART 3.0 software (Panlab S.L., Barcelona, Spain).

For data set [2], the system named is Aβ1-42-induced AD mice. Description: Passive avoidance test. The class given is in vivo, ICR male mice.
Excerpt: as §1, §2, §3
The passive avoidance experiment is a commonly used method for assessing enhancements in learning and memory capabilities. The experiment was conducted in a room with noise levels below 60 dB and dim lighting. The measuring instrument, Shuttle Box Test Package (Med Associates Inc., Vermont, USA), consisting of two rooms of equal size (25 × 25 cm). An automatic guillotine door was installed on the wall separating the two rooms. One room was illuminated (20 W light bulb), while the other remained dark. The mice were trained to associate the dark environment with an aversive stimulus. In the experiment (n = 3), upon entry into the dark room, an electric shock (foot-shock) was administered by passing a current of 3 mA for 5 s through a stainless-steel grid beneath the room. This procedure facilitated the mouse's recognition of the association between the dark environment and the aversive stimulus.

For data set [3], the system named is Aβ1-42-induced AD mice. As to the kind of experiment: Retention test of Morris water maze. The data set is classed as in vivo. As to conditions: 60 s free swimming, platform removed, control group 9.51 ± 5.2. As for the experimental part:
as §4

For the next data set, the system named is TNF-α. As to the kind of experiment: TNF-α gene expression in LPS-induced RAW 264.7 macrophages (qPCR). The class given is cell-based, murine. As for the experimental part:
RAW 264.7 cells at passage 3 were seeded at 1 × 10^5 cells/mL to each well of a 6-well cell culture plate. The cells were cultured until it reached 70−80 % confluency and media were changing every 2 days. Upon confluency, removed the old media and cells were pre-treated with 1 mL non-serum media for 10−15 min in the incubator. All controls and samples, dilutions are prepared in non-serum media. Removed non-serum media and added with LPS (1 μg/mL) in non-serum media for 24 h. Next day, removed the LPS containing media and washed once with 1 × PBS and then the cells were treated with SFN solutions for 1 h. Removed the treatment solution, washed twice with 1 × PBS, pH 7.4. The cells were dissociated and collected by sedimentation (1500 rpm, 6 min).
The total RNA content was extracted following the TRIzol method according to the manufacturer's protocol. Quantification of mRNAs abundance was determined using 1-step reverse transcription real-time quantitative PCR with the QuantiTect SYBR Green RT-PCR Kit (Qiagen, Germany), performed on a Rotor-Gene Q Real-Time system (Qiagen, Germany). […] Target gene expression was normalized to constitutively expressed ACT-β gene, and the relative quantity of target gene mRNAs was expressed as 2^−ΔΔCt using the relative comparative threshold cycle method as previously described [[33], [34], [35]]. […]

Data set [4] has as its system Aβ1-42-induced AD mice. Description: Brain tissue TUNEL assay (hippocampal apoptosis). The class given is in vivo, ICR male mice. To be noted: Aβ1-42 AD mice; SFN 10 mg/kg oral; AD group 40.3 ± 10.4.
Excerpt: as §1, §2, §3

The test system of the next data set is acetylcholine (ACh). As to the kind of experiment: Brain tissue acetylcholine (ACh) level. Details: species or system ICR male mice. To be noted: mouse, in vivo.
Excerpt: as §1, §2, §3

The target of data set [5] is acetylcholinesterase (AChE) (Mus musculus, UniProt P21836). To be noted: SFN 10 mg/kg oral. As for the experimental part:
All efforts were made to minimize suffering and the number of animals used. One day before dissection, only water was provided and food was fasted. Acclimatized experimental animals were grouped into seven containing 7 mice each (Table 1 and Fig. 1).
as §2, §3

Data set [6] is described as follows: In vivo oral absorption of SFN and BSE in rats (pharmacokinetics). On the set-up: species or system Sprague–Dawley rats. To be noted: for AUCinf / AUClast / Cmax / MRT / T1/2 / Tmax: plasma SFN. As to the method:
Sprague–Dawley rats (males, 6–7 weeks old, 200–250 g) were purchased from G-bio (Gwangju, Republic of Korea). The animals were housed under standard conditions in terms of temperature (23 ± 2 °C), relative humidity (RH; 55 ± 10 %), and light (12/12 h light/dark cycle). The animals had ad libitum access to a standard laboratory diet (Nestlé Purina PetCare Research, St. Louis, MO, USA) and ion-sterilized tap water. Ethical approval for this study was obtained from the IACUC of Mokpo National University (Jeonnam, Republic of Korea; approval no. MNU-IACUC-2023-009).
To examine the distinction of pharmacokinetic parameters of SFN after IV injection and oral administration of SFN or BSEP (containing 3 % SFN), Sprague–Dawley rats were orally administered 400 μL of SFN dissolved in 0.5 % sodium CMC (5 mg/kg, SFN-oral) or aqueous solution of BSEP (equivalent to 5 mg/kg SFN, BSEP-oral). To calculate the oral bioavailability, rats were intravenously injected with 200 μL of SFN (5 mg/kg SFN dissolved in 0.5 % sodium CMC) via the femoral vein. Then, 200-μL blood samples were collected from the cannulated femoral artery at predetermined time points and immediately centrifuged at 13,000×g for 5 min at 4 °C. The separated plasma samples were kept frozen at −80 °C until analysis.
To determine the plasma concentrations of SFN, the working solutions of SFN of 20, 15, 10, 5, 2, 1, 0.6, and 0.2 μg/mL, and 5 μg/mL phenylethyl isothiocyanate (internal standard, IS) were prepared in acetonitrile. Then, 10 μL of each working solution and 10 μL of IS were spiked with 180 μL of rat blank plasma for standard solution. Separately, 180 μL of each plasma sample was spiked with 10 μL of IS solution and 10 μL of acetonitrile. Next, 200 μL of a mixture of acetonitrile, water, and ethanol (25:25:50, v/v/v) was added to each plasma sample spiked with IS, followed by vortex mixing. After centrifugation at 13,000×g for 5 min at room temperature, the supernatant was transferred to another vial for further extraction using an HLB SPF μElution plate (Waters Corp., Milford, MA, USA). Each well of the SPE plate was conditioned and equilibrated by 200 μL of methanol and water, respectively. Then, the 400 μL of the collected supernatant was added to each well of the plate and aspirated under a 5 H g vacuum. After washing with 200 μL of water and 50 % methanol, each well was eluted with 400 μL (200 μL × 2 times) of acetonitrile.
Each eluted sample (10 μL) was injected into a UPLC system (ACQUITY UPLC; Waters Corp.) equipped with an ACQUITY UPLC BEH C18 column (2.1 × 50 mm, 1.7 μm; Waters Corp.) at 50 °C. SFN and IS were eluted by the mobile phase (10 mM ammonium acetate in water:0.1 % formic acid in acetonitrile [3:7, v/v]) at a flow rate of 0.6 mL/min. A mass spectrometer (Xevo TQ-S; Waters Corp.) was used for ionization of SFN or the IS (in positive ion multiple reaction-monitoring mode) at an electrospray voltage of 3.0 kV, with a source temperature of 120 °C, desolvation temperature of 500 °C, and desolvation gas flow rate of 800 L/h. SFN quantification was performed by reference to the m/z transition 178.0 → 114.0 at a cone voltage of 24 V and collision energy of 30 eV; for IS, the m/z transition was 164.0 → 130.0 at a cone voltage of 23 V and collision energy of 22 eV.

The conditions of data set [7]: cited from earlier work.
The conditions of data set [8]: cited from earlier work. This is another data set of the same source.
The conditions of data set [9]: rodents, within a few hours post-administration, oral or intraperitoneal; cited from earlier work.
For data set [10] the following is noted: following the consumption of broccoli sprouts or supplements; cited from earlier work.
The mark [11] stands for this setting: single oral dose 5 mg/kg SFN (SFN in 0.5 % sodium CMC; BSEP aqueous solution equivalent to 5 mg/kg SFN).

Sequence of acetylcholinesterase (AChE) (P21836 32-614): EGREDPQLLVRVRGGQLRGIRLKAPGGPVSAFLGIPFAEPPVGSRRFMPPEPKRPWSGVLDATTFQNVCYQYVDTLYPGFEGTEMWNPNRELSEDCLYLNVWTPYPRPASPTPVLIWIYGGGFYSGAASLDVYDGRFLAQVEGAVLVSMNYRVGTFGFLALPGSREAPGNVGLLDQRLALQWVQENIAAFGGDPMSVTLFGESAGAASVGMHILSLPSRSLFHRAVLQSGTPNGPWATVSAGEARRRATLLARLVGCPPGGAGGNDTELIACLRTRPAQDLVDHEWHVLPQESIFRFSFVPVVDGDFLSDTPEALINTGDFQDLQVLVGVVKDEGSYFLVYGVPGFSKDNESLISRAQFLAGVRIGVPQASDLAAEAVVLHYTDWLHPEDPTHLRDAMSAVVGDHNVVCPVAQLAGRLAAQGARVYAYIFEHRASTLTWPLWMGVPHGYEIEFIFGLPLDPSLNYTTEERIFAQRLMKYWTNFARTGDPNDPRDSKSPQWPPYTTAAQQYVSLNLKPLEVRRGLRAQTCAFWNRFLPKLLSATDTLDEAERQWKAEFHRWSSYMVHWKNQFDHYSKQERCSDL

With `COc1cc2c(cc1OC)C(=O)C(CC1CCN(Cc3ccccc3)CC1)C2` (stereo not drawn) [donepezil], the “escape latency times by the third day” value in the data set with Aβ1-42-induced AD mice [1] (donepezil 5 mg/kg oral) is “comparable to those of the normal control group”. For the same molecule, the “average escape latency time over the three days” value in the data set on Aβ1-42-induced AD mice [1] (donepezil 5 mg/kg oral) amounted to 34.97 ± 3.21 s. Also, the “time spent in the brightly lit room before entering the dark room” value in the data set with Aβ1-42-induced AD mice [2] (donepezil 5 mg/kg oral, AD control 19) turned out to be 100 s; in the data set on Aβ1-42-induced AD mice [2] (donepezil 5 mg/kg oral, AD control 51), 149 s; with Aβ1-42-induced AD mice [2] (donepezil 5 mg/kg oral, first of three values, AD control 25), 29 s. In addition, the “time spent in the quadrant where the platform was previously located” value in the data set with Aβ1-42-induced AD mice [3] (donepezil 5 mg/kg) was 16.26 ± 4.61 s.
The term Cmax denotes the highest concentration seen after dosing. In general, MRT refers to the average time that molecules of a dose stay in the body. By Tmax is commonly meant the time from dosing to the highest level. Take “1-isothiocyanato-4-methylsulfonylbutane [SFN]”: the “reduction of TNF-α expression versus control (LPS stimulation only)” value in the data set on TNF-α (1:100 dilution (of SFN 210 ppm; of 1 % BSEP)) was 30–40%. For the same molecule, the TNF-α gene expression entry in the data set with TNF-α (undiluted (positive control SFN 210 ppm; 1 % BSEP solution), LPS 1 μg/mL) is listed as “significant downregulation”. Further, the “number of TUNEL-positive cells in the hippocampus” value with Aβ1-42-induced AD mice [4] came to 19.0 ± 5.2 cells. Further, in the data set with Aβ1-42-induced AD mice [1] (SFN 10 mg/kg oral), the “escape latency times by the third day” value is recorded as “comparable to those of the normal control group” and the “average escape latency time over the three days” value is reported as 28.01 ± 2.95 s. Also, the “time spent in the brightly lit room before entering the dark room” value in the data set with Aβ1-42-induced AD mice [2] (SFN 10 mg/kg oral, AD control 19) amounted to 90 s. In the data set on Aβ1-42-induced AD mice [2] (SFN 10 mg/kg oral, AD control 51), the “time spent in the brightly lit room before entering the dark room” value was 166 s. Further, in the data set on Aβ1-42-induced AD mice [2] (SFN 10 mg/kg oral, first of three values, AD control 25), the “time spent in the brightly lit room before entering the dark room” value is listed as 37 s. Moreover, the “brain ACh level” value with acetylcholine (ACh) was found to be 1.2 ± 0.1 nmol/µL. In addition, the “brain AChE activity relative to normal group (100 %)” value in [5] (AD control 162 %) worked out at 105%. For the same molecule, the “brain AChE activity” value in [5] (AD control 1707.1 ± 97.12, normal 1057.44 ± 75.41) is reported as 1104.65 ± 123.41 mU/mL. This molecule also yielded a Bioavailability in data set [6] (single IV dose 5 mg/kg SFN (reference)) of 100%. In [6] (single IV dose 5 mg/kg SFN), this molecule yielded an AUCinf of 390 ± 33.7 ng·h/mL, an AUClast of 380 ± 27.5 ng·h/mL, a peak concentration (Cmax) of 414 ± 65.1 ng/mL and a mean residence time (MRT) of 0.971 ± 0.224 h. Further, in [6] (single IV dose 5 mg/kg SFN), the T1/2 came out at 1.35 ± 0.806 h and the Tmax came to 0.170 ± 0.000 h. In data set [6] (setting [11]), the AUCinf is 259 ± 39.6 ng·h/mL, the AUClast is on record as 241 ± 46.1 ng·h/mL, the Cmax is 96.2 ± 13.1 ng/mL and the mean residence time MRT amounted to 3.14 ± 0.835 h. Further, in [6] (setting [11]), the T1/2 is listed as 1.82 ± 0.574 h and the time of peak concentration (Tmax) is listed as 1.00 ± 0.000 h. Besides, the Bioavailability in data set [6] (single oral dose 5 mg/kg SFN (SFN in 0.5 % sodium CMC; BSEP aqueous solution equivalent to 5 mg/kg SFN), versus SFN-IV) is reported as 63.4 ± 12.1%. For the same molecule, the “time spent in the quadrant where the platform was previously located” value in the data set with Aβ1-42-induced AD mice [3] (SFN 10 mg/kg) is given as 8.83 ± 5.92 s. Also, the “doses that may lead to toxicity” value in [7] was “exceeding 150 mg/kg body weight”. Further, the “typical urinary excretion, of the administered dose” value in data set [8] is on record as 70−90%. In [9], the SFN brain concentrations was 0.5 to 2 µM. For the same molecule, the “SFN level detected in human plasma” value in data set [10] was “nanomolar to low micromolar levels”.
